Data as given in patent publication US20030031688A1, “Cosmetic composition with improved skin moisturizing properties” (priority 2001, published 2003).

Assay: Moisture uptake of powder samples in controlled humidity chamber
Format: physicochemical
Settings: 65% relative humidity at 25° C.
Method: A mixture of urea and coenzyme Q10 (9:1 Wt./wt.)) was prepared as a dry blend of the raw materials by manually mixing urea (9 parts by weight) and coenzyme Q10 (1 part by weight), with mortar and pestle grinding as necessary, to provide an essentially homogeneous powder. The moisture-absorbing properties were determined based on the amount of moisture uptake over time. For comparison, the moisture-absorbing properties of powder samples of the unblended individual raw materials, i.e., urea alone and coenzyme Q10 alone, were measured.
The samples were placed in a controlled humidity chamber (65% relative humidity at 25° C.) and the mass of each sample was measured at various time points. The water uptake is reflected by the increase in mass over time.
The percentage values shown in Table 1 reflect the percentage increase in mass relative to the weight of the starting sample (prior to being placed in the controlled humidity chamber). The expected percentage values for the blend (“Expected”) were calculated on the basis of the fractional contribution of each component alone, as represented by the following equation: Expected %=(0.9×% measured for urea alone)+(0.1×% measured for Q10 alone).

## NC(N)=O [Urea]
Time 5
  percentage increase in mass relative to the weight of the starting sample (water uptake): 31.0%
Time 10
  percentage increase in mass relative to the weight of the starting sample (water uptake): 4.0%
Time 15
  percentage increase in mass relative to the weight of the starting sample (water uptake): 5.5%
Time 30
  percentage increase in mass relative to the weight of the starting sample (water uptake): 10.6%
Time 45
  percentage increase in mass relative to the weight of the starting sample (water uptake): 16.6%
Time 1 hr
  percentage increase in mass relative to the weight of the starting sample (water uptake): 22.4%

## COC1=C(OC)C(=O)C(C/C=C(\C)CC/C=C(\C)CC/C=C(\C)CC/C=C(\C)CC/C=C(\C)CC/C=C(\C)CC/C=C(\C)CC/C=C(\C)CC/C=C(\C)CCC=C(C)C)=C(C)C1=O [Product Q10, coenzyme Q10]
Time 5
  percentage increase in mass relative to the weight of the starting sample (water uptake): 1.0%
Time 10
  percentage increase in mass relative to the weight of the starting sample (water uptake): 0.1%
Time 15
  percentage increase in mass relative to the weight of the starting sample (water uptake): 0.5%
Time 30
  percentage increase in mass relative to the weight of the starting sample (water uptake): 1.5%
Time 45
  percentage increase in mass relative to the weight of the starting sample (water uptake): 2.4%
Time 1 hr
  percentage increase in mass relative to the weight of the starting sample (water uptake): 3.1%
